Laboratory results reported in publication PMC8157534 (ACS Nano, 2021).

Target: TmrAB (Thermus thermophilus, UniProt Q72J04+Q72J05)
Settings: 2 mM Mg-ATP, 2 mM MgCl2, pH 7.5, 0.2% DDM, 40 °C, 8 min

TmrAB, sequence (Q72J05 1-600): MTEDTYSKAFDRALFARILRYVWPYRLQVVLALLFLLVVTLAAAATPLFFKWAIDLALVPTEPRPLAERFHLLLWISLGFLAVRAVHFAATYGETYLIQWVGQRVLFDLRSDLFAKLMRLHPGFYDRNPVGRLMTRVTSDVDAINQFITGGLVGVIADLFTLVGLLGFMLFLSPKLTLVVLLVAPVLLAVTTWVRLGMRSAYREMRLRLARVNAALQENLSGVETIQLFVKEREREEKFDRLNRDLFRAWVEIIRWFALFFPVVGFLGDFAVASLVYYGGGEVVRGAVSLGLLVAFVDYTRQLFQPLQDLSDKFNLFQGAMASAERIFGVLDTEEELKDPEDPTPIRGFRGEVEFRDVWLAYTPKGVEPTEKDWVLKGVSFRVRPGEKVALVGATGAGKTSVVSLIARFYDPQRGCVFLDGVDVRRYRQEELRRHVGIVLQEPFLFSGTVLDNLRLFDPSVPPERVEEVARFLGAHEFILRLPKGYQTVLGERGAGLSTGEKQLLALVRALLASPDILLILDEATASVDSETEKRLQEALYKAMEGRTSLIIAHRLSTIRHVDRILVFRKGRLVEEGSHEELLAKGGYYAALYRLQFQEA
TmrAB, sequence (Q72J04 1-578): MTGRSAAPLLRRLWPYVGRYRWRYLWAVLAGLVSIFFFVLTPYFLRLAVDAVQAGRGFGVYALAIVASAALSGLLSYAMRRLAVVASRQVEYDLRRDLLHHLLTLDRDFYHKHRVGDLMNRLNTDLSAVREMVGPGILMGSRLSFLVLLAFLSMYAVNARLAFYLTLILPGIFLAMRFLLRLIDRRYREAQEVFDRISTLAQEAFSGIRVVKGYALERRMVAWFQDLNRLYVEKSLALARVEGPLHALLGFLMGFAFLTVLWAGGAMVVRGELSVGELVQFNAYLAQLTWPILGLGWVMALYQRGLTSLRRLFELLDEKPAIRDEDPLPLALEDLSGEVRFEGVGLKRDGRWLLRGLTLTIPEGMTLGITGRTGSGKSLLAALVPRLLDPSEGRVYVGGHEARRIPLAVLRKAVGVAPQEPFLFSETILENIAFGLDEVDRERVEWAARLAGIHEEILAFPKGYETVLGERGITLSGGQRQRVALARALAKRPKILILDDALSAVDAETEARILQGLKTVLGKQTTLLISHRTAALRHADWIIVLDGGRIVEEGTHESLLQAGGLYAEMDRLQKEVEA

In the case of `Nc1ncnc2c1ncn2[C@@H]1O[C@H](COP(=O)(O)OP(=O)(O)OP(=O)(O)O)[C@@H](O)[C@H]1O` [ATP], the ATPase activity is reported as “A high ATPase activity above background demonstrated TmrAB function (Figure 1c)”.
